88 compounds from PubChem BioAssay AID651648 (Sanford-Burnham Center for Chemical Genomics, 2012) can be followed below.

The test concerns the target CRF-binding protein / CRF-R2 receptor complex (human). Nature of the test: CRF-BP/CRF-R2 complex agonists, SAR follow-up, cell-based, 384-well (AID 651648). The settings on record: cells expressing CRF-BP/CRF-R2 complex, agonist read-out.

Each structure is given as a SMILES string. Calls of active or inactive are those of the source. How the calls were made is not given here. Some results are limits rather than exact numbers.

The EC50 is the concentration at which the effect is half-maximal. For the compound `COc1ccc(S(=O)(=O)N(CC(=O)N2CCOCC2)c2ccccc2OC)cc1`, the EC50 was > 20 µM (inactive).
Then `CCCCCCc1cc2cc(C(=O)NCc3ccccc3)c(=N)oc2cc1O`, with > 20 µM (inactive); and `Cc1ccc2oc(=O)c(/C=C(\O)c3sc(C)nc3C)nc2c1`, with > 20 µM (inactive); and `COc1ccc(C(=O)CSc2nnn(-c3cccc(NC(C)=O)c3)n2)cc1`, with > 20 µM (inactive).
Then `CSCCC(NC(=O)c1ccco1)C(=O)N1CC=C(c2ccccc2)CC1` (stereo not drawn), with 13.5 µM; and `CCOc1ccccc1N(CC(=O)N1CCOCC1)S(=O)(=O)c1cccc(Br)c1`, with 1.45 µM.
On to `CC(=O)Nc1ccc(Sc2ncccc2C(=O)Nc2ccc(Br)cc2)cc1`, for which the EC50 was 15.5 µM.
`O=C(COC(=O)[C@H](Cc1ccccc1)NC(=O)c1ccco1)NCc1ccccc1`: the EC50 was 11.3 µM.
Consider `CCOc1cccc(N(CC(=O)N2CCOCC2)S(=O)(=O)c2ccc(OC)cc2)c1`, for which the EC50 is > 20 µM (inactive).
With `CC(=O)Nc1ccc(Sc2ncccc2C(=O)Nc2ccccc2Br)cc1`, the EC50 is > 20 µM (inactive).
Then `CCOc1ccccc1N(CC(=O)N1CCOCC1)S(=O)(=O)c1ccc(SC)cc1`, with 1.47 µM; and `O=C1Nc2ccccc2N(O)N1c1cc(-c2cccc(Cl)c2)no1`, with > 20 µM (inactive).
In the case of `Oc1ccc2ccccc2c1CN1CCCCC1`, the EC50 is > 20 µM (inactive).
Under `CCOc1ccccc1N(CC(=O)N1CCOCC1)S(=O)(=O)c1ccc(C#N)cc1` stands > 20 µM (inactive); under `CCOc1ccccc1N(CC(=O)N1CCOCC1)S(=O)(=O)c1cc(C(=O)OC)ccc1OC`, > 20 µM (inactive).
Under `Cc1cc(=O)[nH]c(SCC(=O)Nc2ccc(Br)cc2)c1C#N` stands > 20 µM (inactive).
Then `CC(=O)Nc1ccc(Sc2ncccc2C(=O)Nc2ccc(OC(F)(F)F)cc2)cn1`, with 5.32 µM; and `CCOC(=O)c1sc(NC(=O)c2cc(-c3ccccc3)nc3ccccc23)c(C#N)c1C`, with > 20 µM (inactive); and `O=C(O)CCNc1nc(-c2ccccc2)c2cc(Br)ccc2n1`, with > 20 µM (inactive).
With `Cc1c(-n2cc(C(=O)c3ccccc3O)cc(C#N)c2=O)c(=O)n(-c2ccccc2)n1C`, the EC50 is > 20 µM (inactive).
As to `CCOc1ccccc1N(CC(=O)N1CCOCC1)S(=O)(=O)c1cccc(F)c1`, the EC50 is 4.77 µM.
Under `Cc1cccc(Oc2ccc(NC(=O)c3ccccc3C(=O)O)cc2)c1C` stands > 20 µM (inactive); under `CCOc1ccc(N(CC(=O)N2CCOCC2)S(=O)(=O)c2ccc(SC)cc2)cc1`, > 20 µM (inactive).
Under `CC(=O)Nc1ccc(Sc2ncccc2C(=O)Nc2ccccc2F)cc1` stands > 20 µM (inactive).
Then `CC(=O)Nc1ccc(Sc2ccccc2C(=O)Nc2ccc(F)cc2)cn1`, with > 20 µM (inactive); and `CC(=O)Nc1cccc(OC(=O)c2ccoc2C)c1`, with 9.4 µM.
In the case of `Cc1cc(NC(=O)COC(=O)[C@H](Cc2ccccc2)NC(=O)c2ccco2)no1`, the concentration for a half-maximal effect (EC50) is 5.58 µM.
Under `CC(=O)Nc1ccc(Sc2ncccc2C(=O)Nc2ccc(F)cc2)cn1` stands 0.953 µM; under `CC(=O)Nc1ccc(Sc2ncccc2C(=O)Nc2ccc(N(O)O)cc2)cc1`, 1.96 µM.
Under `CC(=O)Nc1ccc(Sc2ncccc2C(=O)Nc2ccc(F)cc2)cc1` stands > 20 µM (inactive); under `CCOc1ccccc1N(CC(=O)N1CCOCC1)S(=O)(=O)c1ccc(OC)cc1`, 5.85 µM; under `N#Cc1c(-c2ccccc2)cc(-c2ccccc2)nc1SCC(=O)NCC(=O)O`, > 20 µM (inactive).
For `CCOc1cccc(N(CC(=O)N2CCOCC2)S(=O)(=O)c2ccccc2)c1`, the EC50 is > 20 µM (inactive).
Under `CC1(C(=O)NC(=S)NNC(=O)c2ccncc2)CCCCC1` stands 5.94 µM; under `CCOc1ccccc1N(CC(=O)N1CCOCC1)S(=O)(=O)c1ccccc1`, 4.77 µM; under `COc1ccccc1N(CC(=O)N1CCOCC1)S(=O)(=O)c1ccc(C)cc1`, > 20 µM (inactive).
For `CCOc1ccccc1N(CC(=O)N1CCCCC1)S(=O)(=O)c1ccc(SC)cc1`, the EC50 was 0.473 µM.
Turning to `CC(Oc1ccc(Br)cc1)C(=O)N1CCc2ccccc21` (stereo not drawn), the EC50 is > 20 µM (inactive).
Under `CC(C)c1nc2c(c(=O)c3ccccc3n2C)c(=O)n1CCc1ccccc1` stands 7.24 µM; under `CCOc1ccccc1N(CC(=O)N1CCCCCC1)S(=O)(=O)c1ccc(SC)cc1`, > 20 µM (inactive).
In the case of `Cc1cc(S(=O)(=O)c2cc3ccc(O)c(C)c3oc2=O)ccc1F`, the concentration for a half-maximal effect (EC50) is 2.29 µM.
Then `Cc1ccc2nc(NCCC(=O)O)nc(-c3ccccc3)c2c1`, with > 20 µM (inactive); and `COc1ccc(NC(=O)c2cccnc2Sc2ccc(NC(C)=O)nc2)cc1`, with > 20 µM (inactive).
Regarding `CCOc1ccccc1N(CC(=O)N1CCC(C)CC1)S(=O)(=O)c1ccc(SC)cc1`, the EC50 is > 20 µM (inactive).
Then `CCC1CCCCN1Cc1ccc(OC)c(C)c1` (stereo not drawn), with > 20 µM (inactive); and `CCOc1ccccc1N(CC(=O)N1CCOCC1)S(=O)(=O)c1cccc(OC)c1`, with 3.67 µM.
For `CCOc1ccccc1N(CC(=O)N1CCOCC1)S(=O)(=O)c1ccc(OC)cc1OC`, the EC50 is > 20 µM (inactive).
Then `CCOc1ccccc1N(CC(=O)N1CCOCC1)S(=O)(=O)c1ccc(C)cc1`, with 2.84 µM; and `O=[N+]([O-])c1ccc(O)c(Nc2ncnc3ccc(Br)cc23)c1`, with > 20 µM (inactive); and `CCOc1ccccc1N(CC(=O)N1CCOCC1)S(=O)(=O)c1ccccc1C#N`, with > 20 µM (inactive).
Then `Cc1ccc(S(=O)(=O)NCC(=O)N(CC(=O)NCc2ccco2)Cc2ccccc2)cc1`, with 6.7 µM; and `CCOc1ccccc1N(CC(=O)N1CCCC1)S(=O)(=O)c1ccc(SC)cc1`, with > 20 µM (inactive); and `CCOc1ccccc1N(CC(=O)N1CCOCC1)S(=O)(=O)c1ccc(Br)cc1`, with 1.5 µM.
For `O=c1c(/C=C(\O)c2ccc(F)cc2)nc2ccccc2n1-c1ccccc1`, the EC50 is 9.91 µM.
Under `CCOc1ccc(N(CC(=O)N2CCOCC2)S(=O)(=O)c2ccccc2)cc1` stands > 20 µM (inactive).
In the case of `COc1ccc(NC(=O)c2ccccc2Sc2ccc(NC(C)=O)nc2)cc1`, the EC50 was > 20 µM (inactive).
Then `O=C(O)c1ccc(COc2ccccc2C=C2C(=O)c3ccccc3C2=O)cc1`, with > 20 µM (inactive); and `O=C(CCn1c2c(c3ccccc31)CCCC2)NNC(=O)c1ccccc1C(=O)O`, with > 20 µM (inactive); and `O=C(NC(=O)c1ccccc1O)c1ccc(C(F)(F)F)cc1`, with 13.6 µM.
Under `CCc1nc2c(c(=O)c3ccccc3n2C)c(=O)n1C1CCCCCC1` stands 4.68 µM; under `CC(=O)Nc1ccc(Sc2ncccc2C(=O)Nc2cc(Cl)cc(Cl)c2)cn1`, > 20 µM (inactive).
Under `Cc1sc(NC(=O)C2CCCCC2C(=O)O)c(C(N)=O)c1-c1ccc(C(C)(C)C)cc1` (stereo not drawn) stands 9.52 µM.
For the compound `CC(=O)Nc1ccc(Sc2ncccc2C(=O)Nc2cc(C)cc(C)c2)cn1`, the EC50 is > 20 µM (inactive).
With `Cc1nc2c(c(=O)c3ccccc3n2C)c(=O)n1C1CCCCCC1`, the EC50 is > 20 µM (inactive).
Then `O=C(Nc1ccc(SC(F)F)cc1)c1ccc2c(=O)n3c(nc2c1)CCC3`, with > 20 µM (inactive); and `O=C(Nc1ccc(Br)cc1Cl)c1ccc2c(=O)n3c(nc2c1)CCC3`, with > 40 µM (inactive); and `Cc1ccccc1N(CC(=O)N1CCOCC1)S(=O)(=O)c1ccc(Cl)cc1`, with > 20 µM (inactive).
`COc1ccc(C)cc1NC(=O)c1cccnc1Sc1ccc(NC(C)=O)cc1`: the EC50 is > 20 µM (inactive).
As for `CC(=O)Nc1ccc(Sc2ncccc2C(=O)Nc2ccc(C(F)(F)F)cc2)cc1`, the EC50 is > 20 µM (inactive).
Under `COc1ccc(CCn2c(C(C)C)nc3c(c(=O)c4ccccc4n3C)c2=O)cc1` stands > 20 µM (inactive).
For the compound `CCOc1ccc(N(CC(=O)N2CCOCC2)S(=O)(=O)c2ccc(C)cc2)cc1`, the EC50 was > 20 µM (inactive).
Under `O=C(Nc1cc(S(=O)(=O)N2CCCCC2)ccc1O)c1ccccc1NS(=O)(=O)c1ccc(F)c(F)c1` stands > 20 µM (inactive); under `CCOc1ccc(N(CC(=O)N2CCOCC2)S(=O)(=O)c2ccc(OC)cc2)cc1`, > 20 µM (inactive); under `O=C(CC1CCCCC1)c1c(O)c2ccccc2oc1=O`, 5.68 µM.
Then `O=C(O)c1cc(Cl)ccc1-c1ccc(/C=C/c2cc(C(F)(F)F)[nH]c(=O)n2)o1`, with 5.43 µM; and `CCOc1ccccc1N(CC(=O)N1CCOCC1)S(=O)(=O)c1ccc(F)cc1`, with 3.78 µM; and `CCOC(=O)c1cc2ccccc2n1CCN(CC)CC`, with > 20 µM (inactive).
As for `O=C(Nc1cc(Cl)cc(Cl)c1)c1coc(=O)c(Br)c1`, the EC50 is > 20 µM (inactive).
Then `Cc1[nH]n(-c2cccc(Cl)c2)c(=O)c1-c1ccc(Cl)cc1`, with > 20 µM (inactive); and `CC(=O)Nc1ccc(Sc2ncccc2C(=O)Nc2cccc(OC(F)(F)F)c2)cc1`, with > 20 µM (inactive); and `COc1ccccc1N(CC(=O)N1CCOCC1)S(=O)(=O)c1ccccc1`, with > 20 µM (inactive).
Under `COc1ccc(C)cc1N(CC(=O)N1CCOCC1)S(=O)(=O)c1ccccc1` stands 10.7 µM.
Then `CCNC(=S)NNC(=O)c1cccn(Cc2ccc(Cl)cc2Cl)c1=O`, with > 20 µM (inactive); and `O=c1c(/C=C(\O)c2ccccc2)nc2ccccc2n1-c1ccccc1`, with 8.1 µM; and `CC1(C)CSC(=NCc2ccccc2)N1`, with 7.83 µM.
As to `CCOc1ccccc1N(CC(=O)N1CCOCC1)S(=O)(=O)c1ccc(Br)cc1OC(F)(F)F`, the EC50 was 7.02 µM.
Then `COc1ccc(CN2CCCCC2C)cc1C` (stereo not drawn), with > 20 µM (inactive); and `CC1(C)C(=O)OC(c2cccn2-c2ccc([N+](=O)[O-])cc2)C2(CCCCC2)C1=O` (stereo not drawn), with > 20 µM (inactive).
